{"source": "patent US20230085307A1", "about": "“PYRIDAZINONE COMPOUND AND HERBICIDE” (NISSAN CHEMICAL CORPORATION, priority 2019, published 2023)", "key": {"[1]": {"tested_on": "late watergrass", "test": "Test Example 1: herbicidal activity, application before weed generation under submerged conditions (Table 16, symbol A)", "type": "in vivo, late watergrass (Echinochloa oryzicola)", "conditions": "amount of applied herbicide 320 g/ha", "procedure,_shortened": "(§1)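 Submerged Wagner pots (alluvial soil, 4 cm water) sown with weed seeds and planted with 2.5-leaf rice seedlings; emulsifiable concentrate diluted in water applied to water surface on sowing day. Held in greenhouse at 25-30 °C; injury scored 0-5 by herbicidal rate after three weeks.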"}, "[2]": {"tested_on": "Japanese bulrush", "test": "Test Example 1: herbicidal activity, application before weed generation under submerged conditions (Table 16, symbol B)", "type": "in vivo, Japanese bulrush (Schoenoplectus juncoides)", "conditions": "amount of applied herbicide 320 g/ha", "procedure,_shortened": "as §1"}, "[3]": {"tested_on": "oval-leafed pondweed", "test": "Test Example 1: herbicidal activity, application before weed generation under submerged conditions (Table 16, symbol C)", "type": "in vivo, oval-leafed pondweed (Monochoria vaginalis)", "conditions": "amount of applied herbicide 320 g/ha", "procedure,_shortened": "as §1"}, "[4]": {"tested_on": "barnyard grass", "test": "Test Example 3: herbicidal effect by foliage application, Wagner pot (Table 18, symbol H)", "type": "in vivo, barnyard grass (Echinochloa crus-galli)", "conditions": "320 g/ha", "procedure,_shortened": "(§2)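 Plants were sown in alluvial soil held under 0.1–0.5 cm standing water and grown 14 days in a greenhouse at 25–30 °C. An emulsifiable formulation, water-diluted to the set dose, was then sprayed onto the foliage, and effects were scored three weeks later using previously defined criteria.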"}, "[5]": {"tested_on": "Chinese sprangletop", "test": "Test Example 3: herbicidal effect by foliage application, Wagner pot (Table 18, symbol D)", "type": "in vivo, chinese sprangletop (Leptochloa chinensis)", "conditions": "320 g/ha", "procedure,_shortened": "as §2"}, "[6]": {"tested_on": "rice flat sedge", "test": "Test Example 3: herbicidal effect by foliage application, Wagner pot (Table 18, symbol E)", "type": "in vivo, rice flat sedge (Cyperus iria)", "conditions": "320 g/ha", "procedure,_shortened": "as §2"}, "[7]": {"tested_on": "southern crabgrass", "test": "Test Example 4: herbicidal effect by soil treatment (Table 19, symbol F)", "type": "in vivo, southern crabgrass (Digitaria ciliaris)", "conditions": "amount of applied herbicide 320 g/ha", "procedure,_shortened": "(§3)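 Step 1: sow seeds in sterilized diluvial soil, cover ~1.5 cm. Step 2: spray diluted emulsion onto soil surface at predetermined rate. Step 3: greenhouse, 25–30° C, three weeks. Step 4: grade effect on each plant by earlier criteria.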"}, "[8]": {"tested_on": "green foxtail", "test": "Test Example 4: herbicidal effect by soil treatment (Table 19, symbol G)", "type": "in vivo, green foxtail (Setaria viridis)", "conditions": "amount of applied herbicide 320 g/ha", "procedure,_shortened": "as §3"}, "[9]": {"tested_on": "barnyard grass", "test": "Test Example 4: herbicidal effect by soil treatment (Table 19, symbol H)", "type": "in vivo, barnyard grass (Echinochloa crus-galli)", "conditions": "amount of applied herbicide 320 g/ha", "procedure,_shortened": "as §3"}, "[10]": {"tested_on": "wild oat", "test": "Test Example 4: herbicidal effect by soil treatment (Table 19, symbol I)", "type": "in vivo, wild oat (Avena fatua)", "conditions": "amount of applied herbicide 320 g/ha", "procedure,_shortened": "as §3"}, "[11]": {"tested_on": "blackgrass", "test": "Test Example 4: herbicidal effect by soil treatment (Table 19, symbol J)", "type": "in vivo, blackgrass (Alopecurus myosuroides)", "conditions": "amount of applied herbicide 320 g/ha", "procedure,_shortened": "as §3"}, "[12]": {"tested_on": "Italian ryegrass", "test": "Test Example 4: herbicidal effect by soil treatment (Table 19, symbol K)", "type": "in vivo, Italian ryegrass (Lolium multiflorum)", "conditions": "amount of applied herbicide 320 g/ha", "procedure,_shortened": "as §3"}, "[13]": {"tested_on": "windgrass", "test": "Test Example 4: herbicidal effect by soil treatment (Table 19, symbol L)", "type": "in vivo, windgrass (Apera spica-venti)", "conditions": "amount of applied herbicide 320 g/ha", "procedure,_shortened": "as §3"}, "[14]": {"tested_on": "velvetleaf", "test": "Test Example 4: herbicidal effect by soil treatment (Table 19, symbol M)", "type": "in vivo, velvetleaf (Abutilon theophrasti)", "conditions": "amount of applied herbicide 320 g/ha", "procedure,_shortened": "as §3"}, "[15]": {"tested_on": "redroot pigweed", "test": "Test Example 4: herbicidal effect by soil treatment (Table 19, symbol N)", "type": "in vivo, redroot pigweed (Amaranthus retroflexus)", "conditions": "amount of applied herbicide 320 g/ha", "procedure,_shortened": "as §3"}, "[16]": {"tested_on": "lambsquarters", "test": "Test Example 4: herbicidal effect by soil treatment (Table 19, symbol O)", "type": "in vivo, lambsquarters (Chenopodium album)", "conditions": "amount of applied herbicide 320 g/ha", "procedure,_shortened": "as §3"}, "[17]": {"tested_on": "chickweed", "test": "Test Example 4: herbicidal effect by soil treatment (Table 19, symbol P)", "type": "in vivo, common chickweed (Stellaria media)", "conditions": "amount of applied herbicide 320 g/ha", "procedure,_shortened": "as §3"}, "[18]": {"tested_on": "persian speedwell", "test": "Test Example 4: herbicidal effect by soil treatment (Table 19, symbol R)", "type": "in vivo, Persian speedwell (Veronica persica)", "conditions": "amount of applied herbicide 320 g/ha", "procedure,_shortened": "as §3"}, "[19]": {"tested_on": "southern crabgrass", "test": "Test Example 5: herbicidal effect by foliage application, plastic box (Table 20, symbol F)", "type": "in vivo, southern crabgrass (Digitaria ciliaris)", "conditions": "foliage application, 320 g/ha, three weeks after application", "procedure,_shortened": "(§4)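 Foliar spray test: emulsion formulation diluted in water to a set application rate, sprayed onto 14-day-old plants raised in diluvial soil at 25° C to 30° C under glass. Both herbicidal effect and crop effect rated visually three weeks later.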"}, "[20]": {"tested_on": "green foxtail", "test": "Test Example 5: herbicidal effect by foliage application, plastic box (Table 20, symbol G)", "type": "in vivo, green foxtail (Setaria viridis)", "conditions": "foliage application, 320 g/ha, three weeks after application", "procedure,_shortened": "as §4"}, "[21]": {"tested_on": "barnyard grass", "test": "Test Example 5: herbicidal effect by foliage application, plastic box (Table 20, symbol H)", "type": "in vivo, barnyard grass (Echinochloa crus-galli)", "conditions": "foliage application, 320 g/ha, three weeks after application", "procedure,_shortened": "as §4"}, "[22]": {"tested_on": "wild oat", "test": "Test Example 5: herbicidal effect by foliage application, plastic box (Table 20, symbol I)", "type": "in vivo, wild oat (Avena fatua)", "conditions": "foliage application, 320 g/ha, three weeks after application", "procedure,_shortened": "as §4"}, "[23]": {"tested_on": "blackgrass", "test": "Test Example 5: herbicidal effect by foliage application, plastic box (Table 20, symbol J)", "type": "in vivo, blackgrass (Alopecurus myosuroides)", "conditions": "foliage application, 320 g/ha, three weeks after application", "procedure,_shortened": "as §4"}, "[24]": {"tested_on": "Italian ryegrass", "test": "Test Example 5: herbicidal effect by foliage application, plastic box (Table 20, symbol K)", "type": "in vivo, Italian ryegrass (Lolium multiflorum)", "conditions": "foliage application, 320 g/ha, three weeks after application", "procedure,_shortened": "as §4"}, "[25]": {"tested_on": "windgrass", "test": "Test Example 5: herbicidal effect by foliage application, plastic box (Table 20, symbol L)", "type": "in vivo, windgrass (Apera spica-venti)", "conditions": "foliage application, 320 g/ha, three weeks after application", "procedure,_shortened": "as §4"}, "[26]": {"tested_on": "velvetleaf", "test": "Test Example 5: herbicidal effect by foliage application, plastic box (Table 20, symbol M)", "type": "in vivo, velvetleaf (Abutilon theophrasti)", "conditions": "foliage application, 320 g/ha, three weeks after application", "procedure,_shortened": "as §4"}, "[27]": {"tested_on": "redroot pigweed", "test": "Test Example 5: herbicidal effect by foliage application, plastic box (Table 20, symbol N)", "type": "in vivo, redroot pigweed (Amaranthus retroflexus)", "conditions": "foliage application, 320 g/ha, three weeks after application", "procedure,_shortened": "as §4"}, "[28]": {"tested_on": "lambsquarters", "test": "Test Example 5: herbicidal effect by foliage application, plastic box (Table 20, symbol O)", "type": "in vivo, lambsquarters (Chenopodium album)", "conditions": "foliage application, 320 g/ha, three weeks after application", "procedure,_shortened": "as §4"}, "[29]": {"tested_on": "chickweed", "test": "Test Example 5: herbicidal effect by foliage application, plastic box (Table 20, symbol P)", "type": "in vivo, common chickweed (Stellaria media)", "conditions": "foliage application, 320 g/ha, three weeks after application", "procedure,_shortened": "as §4"}, "[30]": {"tested_on": "false cleavers", "test": "Test Example 5: herbicidal effect by foliage application, plastic box (Table 20, symbol Q)", "type": "in vivo, false cleavers (Galium spurium)", "conditions": "foliage application, 320 g/ha, three weeks after application", "procedure,_shortened": "as §4"}, "[31]": {"tested_on": "persian speedwell", "test": "Test Example 5: herbicidal effect by foliage application, plastic box (Table 20, symbol R)", "type": "in vivo, Persian speedwell (Veronica persica)", "conditions": "foliage application, 320 g/ha, three weeks after application", "procedure,_shortened": "as §4"}}, "data": [{"molecule": "CCOc1ccccc1-c1sc2cc(OCc3ccccc3)ccc2c1-c1c(O)c(C)nn(C)c1=O", "note": "[3-119]", "values": [{"measurement": "Herbicidal effect, A: late watergrass", "setting": "[1]", "value": "3 (Herbicidal rate of 40% or more and less than 70%)"}, {"measurement": "Herbicidal effect, B: Japanese bulrush", "setting": "[2]", "value": "3 (Herbicidal rate of 40% or more and less than 70%)"}, {"measurement": "Herbicidal effect, C: oval-leafed pondweed", "setting": "[3]", "value": "3 (Herbicidal rate of 40% or more and less than 70%)"}, {"measurement": "herbicidal effect on barnyard grass (H)", "setting": "[4]", "value": "4 (Herbicidal rate of 70% or more and less than 90%)"}, {"measurement": "herbicidal effect on Chinese sprangletop (D)", "setting": "[5]", "value": "4 (Herbicidal rate of 70% or more and less than 90%)"}, {"measurement": "herbicidal effect on rice flat sedge (E)", "setting": "[6]", "value": "5 (Herbicidal rate of 90% or more (almost completely withered))"}, {"measurement": "F: southern crabgrass, herbicidal effect grade", "setting": "[7]", "value": "4 (Herbicidal rate of 70% or more and less than 90%)"}, {"measurement": "G: green foxtail, herbicidal effect grade", "setting": "[8]", "value": "3 (Herbicidal rate of 40% or more and less than 70%)"}, {"measurement": "H: barnyard grass, herbicidal effect grade", "setting": "[9]", "value": "0 (Herbicidal rate of 5% or less (almost no effect))"}, {"measurement": "I: wild oat, herbicidal effect grade", "setting": "[10]", "value": "0 (Herbicidal rate of 5% or less (almost no effect))"}, {"measurement": "J: blackgrass, herbicidal effect grade", "setting": "[11]", "value": "0 (Herbicidal rate of 5% or less (almost no effect))"}, {"measurement": "K: Italian ryegrass, herbicidal effect grade", "setting": "[12]", "value": "0 (Herbicidal rate of 5% or less (almost no effect))"}, {"measurement": "L: windgrass, herbicidal effect grade", "setting": "[13]", "value": "0 (Herbicidal rate of 5% or less (almost no effect))"}, {"measurement": "M: velvetleaf, herbicidal effect grade", "setting": "[14]", "value": "0 (Herbicidal rate of 5% or less (almost no effect))"}, {"measurement": "N: redroot pigweed, herbicidal effect grade", "setting": "[15]", "value": "3 (Herbicidal rate of 40% or more and less than 70%)"}, {"measurement": "O: lambsquarters, herbicidal effect grade", "setting": "[16]", "value": "3 (Herbicidal rate of 40% or more and less than 70%)"}, {"measurement": "P: chickweed, herbicidal effect grade", "setting": "[17]", "value": "0 (Herbicidal rate of 5% or less (almost no effect))"}, {"measurement": "R: persian speedwell, herbicidal effect grade", "setting": "[18]", "value": "5 (Herbicidal rate of 90% or more (almost completely withered))"}, {"measurement": "F: southern crabgrass, herbicidal effect grade", "setting": "[19]", "value": "5 (Herbicidal rate of 90% or more (almost completely withered))"}, {"measurement": "G: green foxtail, herbicidal effect grade", "setting": "[20]", "value": "5 (Herbicidal rate of 90% or more (almost completely withered))"}, {"measurement": "H: barnyard grass, herbicidal effect grade", "setting": "[21]", "value": "3 (Herbicidal rate of 40% or more and less than 70%)"}, {"measurement": "I: wild oat, herbicidal effect grade", "setting": "[22]", "value": "1 (Herbicidal rate of 5% or more and less than 20%)"}, {"measurement": "J: blackgrass, herbicidal effect grade", "setting": "[23]", "value": "0 (Herbicidal rate of 5% or less (almost no effect))"}, {"measurement": "K: Italian ryegrass, herbicidal effect grade", "setting": "[24]", "value": "1 (Herbicidal rate of 5% or more and less than 20%)"}, {"measurement": "L: windgrass, herbicidal effect grade", "setting": "[25]", "value": "4 (Herbicidal rate of 70% or more and less than 90%)"}, {"measurement": "M: velvetleaf, herbicidal effect grade", "setting": "[26]", "value": "4 (Herbicidal rate of 70% or more and less than 90%)"}, {"measurement": "N: redroot pigweed, herbicidal effect grade", "setting": "[27]", "value": "5 (Herbicidal rate of 90% or more (almost completely withered))"}, {"measurement": "O: lambsquarters, herbicidal effect grade", "setting": "[28]", "value": "5 (Herbicidal rate of 90% or more (almost completely withered))"}, {"measurement": "P: chickweed, herbicidal effect grade", "setting": "[29]", "value": "5 (Herbicidal rate of 90% or more (almost completely withered))"}, {"measurement": "Q: false cleavers, herbicidal effect grade", "setting": "[30]", "value": "5 (Herbicidal rate of 90% or more (almost completely withered))"}, {"measurement": "R: persian speedwell, herbicidal effect grade", "setting": "[31]", "value": "5 (Herbicidal rate of 90% or more (almost completely withered))"}]}]}
